Data published in US5143916A, “Naphthylpiperazines useful as 5-HT1A receptor ligands” (Adir et Compagnie, priority 1989, dated 1992).

Key:
[1] = Antihypertensive activity: arterial blood pressure and heart rate in anesthetized mongrel dogs (i.v.); type: in vivo
Experimental: Mongrel dogs (male and female) are anesthetized with phenobarbital (30 mg/kg i.v.) and then placed in artificial respiration (Bird Mark VII respirator). Arterial blood pressure is measured by means of a catheter placed in the abdominal aorta via the femoral artery. This catheter is connected to a pressure cell (Statham® R23 D6) linked to a recorder.
Heart rate is measured by means of a Gould Biotach®.
Sympathetic nervous activity is recorded from the renal nerve by means of a silver electrode. The amplified signal is visualized on an oscilloscope (Tektronix 5115®) and then measured in μV by means of a Gould integrator.

[2] = dog, in vivo; cited from earlier work
5-HT1A receptors = conditions: European Journal of Pharmacology, (1988), 149, p. 213-223; cited from earlier work

## O=C(NCCN1CCN(c2cccc3c2OC[C@H](CO)O3)CC1)c1ccc(F)cc1 (racemic) [Flesinoxan, racemic]
[1]; 10 μg/kg i.v.
  Effect on arterial blood pressure: 0 mm/Hg
  Effect on heart rate: 0 Beats/min.
[1]; 30 μg/kg i.v.
  Effect on heart rate: 0 Beats/min.

## O=C(NCCN1CCN(c2cccc3c2OC[C@H](CO)O3)CC1)c1ccc(F)cc1 (single isomer, unassigned) [Flesinoxan, (+) isomer]
[2]
  Relative activity of flesinoxan isomers: the more active isomer

## O=C(NCCN1CCN(c2cccc3c2OC[C@H](CO)O3)CC1)c1ccc(F)cc1 [flesinoxan]
5-HT1A receptors
  5-HT1A receptor agonist activity, antihypertensive properties: antihypertensive properties due to its 5-HT1A receptor agonist activity
